In ChEMBL document CHEMBL1201862, “PubChem BioAssay data set” (2004):
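Values below derive from 48-hour exposures of cells grown in 96-well plates, with endpoints linearly interpolated between the two concentrations bracketing the appropriate inhibition level. GI50 = concentration required for 50% inhibition of growth.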 Calls of active or inactive are those of the source. Rule as the data show it: active = GI50 up to about 1.1 µM and inactive = higher.

Columns and labels:
Assay in all cases: NCI tumour cell line growth inhibition, 48 h
[1] = tested on: A549
[2] = tested on: EKVX
[3] = tested on: KM-20L2
[4] = tested on: HCT-15
[5] = tested on: IGROV-1
[6] = tested on: CAKI-1
[7] = tested on: OVCAR-3
[8] = tested on: UACC-62
[9] = tested on: COLO 205
[10] = tested on: M14
[11] = tested on: UACC-257
[12] = tested on: SNB-78
[13] = tested on: SF-539
[14] = tested on: SF-295
[15] = tested on: HCT-116
[16] = tested on: HL-60
[17] = tested on: SNB-75
[18] = tested on: Malme-3M
[19] = tested on: SK-MEL-5
[20] = tested on: RPMI-8226
[21] = tested on: SF-268
[22] = tested on: LXFL 529
[23] = tested on: SNB-19
[24] = tested on: SN12C
[25] = tested on: HOP-92
[26] = tested on: K562
[27] = tested on: TK-10
[28] = tested on: RXF 393
[29] = tested on: HCC 2998
[30] = tested on: KM12
[31] = tested on: OVCAR-4
[32] = tested on: 786-0
[33] = tested on: A498
[34] = tested on: SK-MEL-28
[35] = tested on: HOP-62
[36] = tested on: SK-OV-3
[37] = tested on: CCRF-CEM
[38] = tested on: NCI-H522
[39] = tested on: MOLT-4
[40] = tested on: DMS-114
[41] = tested on: HT-29
[42] = tested on: OVCAR-5
[43] = tested on: SW-620
[44] = tested on: SK-MEL-2
[45] = tested on: NCI-H23
[46] = tested on: DMS-273
[47] = tested on: ACHN
[48] = tested on: U-251
[49] = tested on: NCI-H226
[50] = tested on: XF498
[51] = tested on: OVCAR-8
[52] = tested on: M19-MEL
[53] = tested on: NCI-H460
[54] = tested on: RXF 631
[55] = tested on: UO-31
[56] = tested on: DLD-1
[57] = tested on: LOX IMVI
[58] = tested on: SR

For `COC(=O)C1=C(C(=O)OC)C2(CCCCCC2=O)OC1=O` (configuration not stated), the GI50 [1] was > 100 µM (inactive), the GI50 [2] was > 100 µM (inactive) and the GI50 [3] was > 100 µM (inactive). For the same molecule, the GI50 [4] was greater than 100 µM, the GI50 [5] was > 100 µM (inactive) and the GI50 [6] was > 100 µM (inactive). For the same molecule, the GI50 [7] was > 100 µM (inactive), the GI50 [8] was > 100 µM (inactive) and the GI50 [9] was > 100 µM (inactive). The GI50 [10] was > 100 µM (inactive), the GI50 [11] was > 100 µM (inactive) and the GI50 [12] was > 100 µM (inactive). For the same molecule, the GI50 [13] was > 100 µM (inactive), the GI50 [14] was > 100 µM (inactive) and the GI50 [15] was > 100 µM (inactive). The GI50 [16] was > 100 µM (inactive), the GI50 [17] was > 100 µM (inactive) and the GI50 [18] was > 100 µM (inactive). The GI50 [19] was > 100 µM (inactive), the GI50 [20] was > 100 µM (inactive) and the GI50 [21] was > 100 µM (inactive). The GI50 [22] was > 100 µM (inactive), the GI50 [23] was > 100 µM (inactive) and the GI50 [24] was > 100 µM (inactive). For the same molecule, the GI50 [25] was > 100 µM (inactive), the GI50 [26] was > 100 µM (inactive) and the GI50 [27] was > 100 µM (inactive). For the same molecule, the GI50 [28] was > 100 µM (inactive), the GI50 [29] was > 100 µM (inactive) and the GI50 [30] was > 100 µM (inactive). The GI50 [31] was > 100 µM (inactive), the GI50 [32] was > 100 µM (inactive) and the GI50 [33] was > 100 µM (inactive). For the same molecule, the GI50 [34] was > 100 µM (inactive), the GI50 [35] was > 100 µM (inactive) and the GI50 [36] was > 100 µM (inactive). The GI50 [37] was > 100 µM (inactive), the GI50 [38] was > 100 µM (inactive) and the GI50 [39] was > 100 µM (inactive). The GI50 [40] was > 100 µM (inactive), the GI50 [41] was > 100 µM (inactive) and the GI50 [42] was > 100 µM (inactive). For the same molecule, the GI50 [43] was > 100 µM (inactive), the GI50 [44] was > 100 µM (inactive) and the GI50 [45] was > 100 µM (inactive). The GI50 [46] was > 100 µM (inactive), the GI50 [47] was > 100 µM (inactive) and the GI50 [48] was > 100 µM (inactive). The GI50 [49] was > 100 µM (inactive), the GI50 [50] was > 100 µM (inactive) and the GI50 [51] was > 100 µM (inactive). The GI50 [52] was > 100 µM (inactive), the GI50 [53] was > 100 µM (inactive) and the GI50 [54] was > 100 µM (inactive).

For `Cc1cc(C)nc(NS(=O)(=O)c2ccc(Nc3c4ccccc4nc4c(C(=O)Nc5ccc(S(=O)(=O)Nc6cc(C)on6)cc5)ccc(Cl)c34)cc2)n1`, the GI50 [55] was 20.8 µM (inactive), the GI50 [2] was 25.5 µM (inactive) and the GI50 [3] was 19.5 µM (inactive). The GI50 [4] was 28.9 µM, the GI50 [7] was 17 µM (inactive) and the GI50 [8] was 26.4 µM (inactive). For the same molecule, the GI50 [10] was 20.1 µM (inactive), the GI50 [11] was 28.9 µM (inactive) and the GI50 [12] was 29.2 µM (inactive). The GI50 [13] was 21.5 µM (inactive), the GI50 [14] was 20.7 µM (inactive) and the GI50 [15] was 17.7 µM (inactive). For the same molecule, the GI50 [17] was 31.7 µM (inactive), the GI50 [18] was 28.1 µM (inactive) and the GI50 [20] was 20.6 µM (inactive). The GI50 [56] was 17.2 µM (inactive), the GI50 [21] was 27.2 µM (inactive) and the GI50 [22] was 18.5 µM (inactive). The GI50 [57] was 22.2 µM (inactive), the GI50 [23] was 22.4 µM (inactive) and the GI50 [24] was 21.3 µM (inactive). The GI50 [26] was 27.8 µM (inactive), the GI50 [27] was 76 µM (inactive) and the GI50 [28] was 14.8 µM (inactive). The GI50 [29] was 17.3 µM (inactive), the GI50 [30] was 17.3 µM (inactive) and the GI50 [31] was 28.6 µM (inactive). The GI50 [32] was 17.9 µM (inactive), the GI50 [33] was 17.2 µM (inactive) and the GI50 [34] was 27.7 µM (inactive). For the same molecule, the GI50 [35] was 21.5 µM (inactive), the GI50 [36] was 69.7 µM (inactive) and the GI50 [37] was 21.8 µM (inactive). The GI50 [58] was 21.1 µM (inactive), the GI50 [38] was 21.5 µM (inactive) and the GI50 [39] was 19.5 µM (inactive). The GI50 [41] was 23.4 µM (inactive), the GI50 [42] was 18.7 µM (inactive) and the GI50 [45] was 20.3 µM (inactive). For the same molecule, the GI50 [47] was 36.2 µM (inactive), the GI50 [48] was 15.9 µM (inactive) and the GI50 [50] was 18.7 µM (inactive). The GI50 [51] was 26.4 µM (inactive), the GI50 [52] was 37.9 µM (inactive) and the GI50 [53] was 22 µM (inactive). For the same molecule, the GI50 [54] was 20.7 µM (inactive).

In the case of `CC(C)(C)CC(C)(C)c1cc2c(O)c(c1)Cc1cc(C(C)(C)CC(C)(C)C)cc(c1O)Cc1cc(C(C)(C)CC(C)(C)C)cc(c1O)Cc1cc(C(C)(C)CC(C)(C)C)cc(c1O)Cc1cc(C(C)(C)CC(C)(C)C)cc(c1O)Cc1cc(C(C)(C)CC(C)(C)C)cc(c1O)C2`, the GI50 [1] is reported as > 100 µM (inactive), the GI50 [55] is reported as > 100 µM (inactive) and the GI50 [2] is reported as > 100 µM (inactive). The GI50 [3] was > 100 µM (inactive), the GI50 [4] was greater than 100 µM and the GI50 [5] was > 100 µM (inactive). The GI50 [7] was > 100 µM (inactive), the GI50 [8] was > 100 µM (inactive) and the GI50 [9] was > 100 µM (inactive). For the same molecule, the GI50 [10] was > 100 µM (inactive), the GI50 [11] was > 100 µM (inactive) and the GI50 [12] was > 100 µM (inactive). The GI50 [13] was > 100 µM (inactive), the GI50 [14] was > 100 µM (inactive) and the GI50 [15] was > 100 µM (inactive). The GI50 [16] was > 100 µM (inactive), the GI50 [17] was > 100 µM (inactive) and the GI50 [18] was > 100 µM (inactive). For the same molecule, the GI50 [19] was > 100 µM (inactive), the GI50 [20] was > 100 µM (inactive) and the GI50 [56] was > 100 µM (inactive). The GI50 [21] was > 100 µM (inactive), the GI50 [22] was > 100 µM (inactive) and the GI50 [23] was > 100 µM (inactive). The GI50 [24] was > 100 µM (inactive), the GI50 [25] was > 100 µM (inactive) and the GI50 [26] was > 100 µM (inactive). For the same molecule, the GI50 [27] was > 100 µM (inactive), the GI50 [28] was > 100 µM (inactive) and the GI50 [29] was > 100 µM (inactive). For the same molecule, the GI50 [30] was > 100 µM (inactive), the GI50 [31] was > 100 µM (inactive) and the GI50 [32] was > 100 µM (inactive). For the same molecule, the GI50 [34] was > 100 µM (inactive), the GI50 [35] was > 100 µM (inactive) and the GI50 [37] was > 100 µM (inactive). The GI50 [38] was > 100 µM (inactive), the GI50 [39] was > 100 µM (inactive) and the GI50 [40] was > 100 µM (inactive). For the same molecule, the GI50 [41] was > 100 µM (inactive), the GI50 [42] was > 100 µM (inactive) and the GI50 [43] was > 100 µM (inactive). The GI50 [44] was > 100 µM (inactive), the GI50 [45] was > 100 µM (inactive) and the GI50 [46] was > 100 µM (inactive). The GI50 [47] was > 100 µM (inactive), the GI50 [48] was > 100 µM (inactive) and the GI50 [50] was > 100 µM (inactive). The GI50 [51] was > 100 µM (inactive), the GI50 [52] was > 100 µM (inactive) and the GI50 [53] was > 100 µM (inactive). For the same molecule, the GI50 [54] was > 100 µM (inactive).
